Common to all, as to assay type: cell-based
For test [1], the target named is T1, human OTR (Homo sapiens, UniProt P30559).
T1 construct: expressed in transfected cells
T1 sequence (P30559 1-389): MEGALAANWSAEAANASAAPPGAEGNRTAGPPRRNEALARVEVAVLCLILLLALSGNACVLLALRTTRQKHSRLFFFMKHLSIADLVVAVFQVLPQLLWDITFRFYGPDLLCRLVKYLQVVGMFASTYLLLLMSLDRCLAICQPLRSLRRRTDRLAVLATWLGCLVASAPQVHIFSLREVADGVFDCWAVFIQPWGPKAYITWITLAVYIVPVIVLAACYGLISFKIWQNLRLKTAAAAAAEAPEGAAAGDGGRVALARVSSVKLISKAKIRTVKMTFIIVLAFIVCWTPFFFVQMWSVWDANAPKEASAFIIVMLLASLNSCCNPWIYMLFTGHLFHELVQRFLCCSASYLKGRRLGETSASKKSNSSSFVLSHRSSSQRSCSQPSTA
The test is described as follows: Inhibition activity on human OTR (Fluo-4 calcium assay, HEK293/human OTR stably transfected cells, oxytocin 3 nM). The following applies: calcium signal. As for the experimental part:
The inhibition effect of the compounds of the present invention on the activity of human OTR protein expressed in HEK293/human OTR stably transfected cells was determined by the following experimental method:
The pcDNA3.1-hOTR plasmid was transferred into HEK293 cells with the Lipofectamine® 3000 transfection reagent; G418 was added on the next day to screen, and monoclonal cell lines were selected.
(§1) HEK293/human OTR stably transfected cells were inoculated in a 96-well plate with an inoculation density of 25,000 cells/well one day in advance. On the next day, a loading buffer containing Fluo-4 dye was formulated using the reagents in the Fluo-4 NW calcium assay kit, and the culture medium was then removed; 100 μl of the loading buffer containing Fluo-4 dye were added to each well, and the plate was incubated at 37° C. for 30 minutes. After that, the plate was moved to room temperature and equilibrated for 10 minutes. The compounds were formulated into concentration gradients of 10^6, 10^5, 10^4, 10^3, 10^2 and 10^1 nM. 1 μl of the compounds in each concentration was added to each well, and the plate was incubated at room temperature for 10 minutes. 50 μl of oxytocin polypeptide (3 nM) were automatically added by the machine, and the values were immediately detected at 494/516 nM by the flexstation 3 microplate reader. IC50 values of the compounds were calculated by Graphpad prism software using fluorescence signals corresponding to different concentrations.
The inhibition activity of the compounds of the present invention on human OTR was determined by the above test, and the obtained IC50 values are shown in Table 1.

Test [2] has as its target T2, human V1aR (Homo sapiens, UniProt P37288).
T2 construct: expressed in transfected cells
The test is described as follows: Inhibition activity on human V1aR (Fluo-4 calcium assay, HEK293/human V1aR stably transfected cells, vasopressin 3 nM). The following applies: calcium signal. As for the experimental part:
The inhibition effect of the compounds of the present invention on the activity of human V1aR protein expressed in HEK293/human V1aR stably transfected cells was determined by the following experimental method:
The pcDNA3.1-V1aR plasmid was transferred into HEK293 cells with the Lipofectamine® 3000 transfection reagent; G418 was added on the next day to screen, and monoclonal cell lines were selected.
as §1, with “V1aR” for “OTR”, “50 μl of oxytocin polypeptide (3 nM) were automatically added by the machine, and the values were immediately detected at 494/516 nM by the flexstation 3 microplate reader.” left out
The inhibition activity of the compounds of the present invention on human V1aR was determined by the above test, and the obtained IC50 values are shown in Table 2.

In test [3] the target is T3, human V2R (Homo sapiens, UniProt P30518).
T3 construct: expressed in transfected cells; host or cells: HEK293 (G418-selected pool)
T3 sequence (P30518 whole entry): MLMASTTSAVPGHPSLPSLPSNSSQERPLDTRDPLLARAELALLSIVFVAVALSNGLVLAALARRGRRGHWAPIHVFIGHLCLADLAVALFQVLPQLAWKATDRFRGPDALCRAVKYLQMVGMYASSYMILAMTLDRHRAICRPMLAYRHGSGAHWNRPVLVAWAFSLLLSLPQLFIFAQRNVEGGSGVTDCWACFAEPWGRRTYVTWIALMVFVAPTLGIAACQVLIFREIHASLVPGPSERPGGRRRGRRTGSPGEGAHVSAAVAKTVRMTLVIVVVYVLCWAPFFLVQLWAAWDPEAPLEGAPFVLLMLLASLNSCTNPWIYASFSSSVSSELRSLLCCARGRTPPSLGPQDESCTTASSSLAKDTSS
In words: Inhibition activity on human V2R (cAMP HTRF assay, HEK293/human V2R pool cells, vasopressin). As for the experimental part:
The inhibition effect of the compounds of the present invention on the activity of human V2R protein expressed in HEK293/human V2R cells was determined by the following experimental method:
The pcDNA3.1-V2R plasmid was transferred into HEK293 cells with the Lipofectamine® 3000 transfection reagent; G418 was added on the next day, and the HEK293/human V2R pool cell lines were obtained.
HEK293/human V2R pool cells were digested with the cell dissociation solution (enzyme-free), thereby dissociating the cells from the cell culture dish into individual cells. After completion, the cell solution was blown well, and centrifuged to remove the supernatant. The cells were re-suspended in the test buffer 1 (1×HBSS+20 mM HEPES+0.1% BSA) and counted. The cell density was adjusted to 1250 cells/5 μl, i.e., 2.5*10^5/ml.
The compounds were formulated into a series of concentrations of 20 mM, 6.67 mM, 2.22 mM, 0.74 mM, 0.25 mM, 0.08 mM, 27.4 μM, 9.14 μM, 3.05 μM, 1.02 μM, 0.34 μM and 0 μM (DMSO) with pure DMSO. The compounds were then formulated into a 4-fold use concentration with the test buffer 2 (test buffer 1+1 mM IBMX).
Agonist: 460 μM vasopressin was used as the mother liquor, formulated as a 2 μM solution with DMSO, which was then diluted to a 0.5 nM solution with the test buffer 2.
Standard: The first point was 20 μl of a stock solution (2848 nM), which was diluted successively to a total of eleven concentrations in a 4-fold concentration gradient with the test buffer 1 from the second point.
1. The well-mixed cells were added to a 384-well plate (5 μl/well) without changing the tip.
2. The test compounds and positive compound formulated were added (2.5 μl/well), and the tips were changed.
3. The plate was centrifuged at 1000 rpm for 1 min, shaken for 30 sec to mix well, and incubated at room temperature for 30 min.
4. The standard curve wells were added with the test buffer 2 (5 μl/well).
5. The agonist formulated was added (2.5 μl/well), and the tips were changed; the plate was centrifuged at 1000 rpm for 1 min, shaken for 30 sec to mix well, and incubated at room temperature for 30 min.
6. cAMP-d2 (a component in the cAMP dynamic 2 kit) and Anti-cAMP-Eu-Cryptate (a component in the cAMP dynamic 2 kit) were formulated in the dark, which were then mixed well with cAMP lysate (a component in the cAMP dynamic 2 kit) in a ratio of 1:4. Each well was added with the formulated cAMP-d2 solution (5 μl/well), followed by addition of Anti-cAMP-Eu-Cryptate (5 μl/well). The plate was shaken for 30 sec to mix well, and incubated in the dark at room temperature for 1 h.
4) Plate reading: The HTRF signals were read by the PheraStar multi-function microplate reader.
The data in this test was processed using the data processing software Graphpad Prism.
The inhibition activity of the compounds of the present invention on human V2R was determined by the above test, and the obtained IC50 values are shown in Table 4.
In general terms: TR-FRET usually uses a lanthanide donor and a delayed reading to cut background.

For five compounds, IC50 results are on record in US20210040073A1, “AZABICYCLO-SUBSTITUTED TRIAZOLE DERIVATIVE, PREPARATION METHOD THEREOF, AND APPLICATION OF SAME IN MEDICINE” (Jiangsu Hengrui Medicine Co., Ltd., priority 2016, published 2021).

T2 sequence (P37288 whole entry): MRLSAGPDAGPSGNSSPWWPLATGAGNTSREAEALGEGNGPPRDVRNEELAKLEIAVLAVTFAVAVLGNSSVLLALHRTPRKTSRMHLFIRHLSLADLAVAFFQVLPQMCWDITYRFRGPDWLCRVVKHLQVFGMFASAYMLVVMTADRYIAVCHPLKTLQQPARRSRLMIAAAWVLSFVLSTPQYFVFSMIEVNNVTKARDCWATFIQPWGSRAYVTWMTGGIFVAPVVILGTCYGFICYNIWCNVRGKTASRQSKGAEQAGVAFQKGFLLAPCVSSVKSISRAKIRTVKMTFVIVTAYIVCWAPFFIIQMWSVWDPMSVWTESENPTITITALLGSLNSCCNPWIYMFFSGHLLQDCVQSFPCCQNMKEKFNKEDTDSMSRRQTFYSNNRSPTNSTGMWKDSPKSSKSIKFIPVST

As for `COc1ccc(-n2c(COCCF)nnc2N2C[C@@H]3C[C@]3(c3ccc(F)cc3Cl)C2)cn1` [Example 1, (1S,5R)-1-(2-Chloro-4-fluorophenyl)-3-(5-((2-fluoroethoxy)methyl)-4-(6-methoxypyridin-3-yl)-4H-1,2,4-triazol-3-yl)-3-azabicyclo[3.1.0]hexane], the results for the IC50 in test [1], in test [2] and in test [3] were 44 nM, 1000 nM and 21400 nM, respectively.
Taken in the same sequence, the figures for `COCc1nnc(N2C[C@@H]3C[C@]3(c3cccc(F)c3Cl)C2)n1-c1ccc(OC)nc1` [Example 4, (1S,5R)-1-(2-Chloro-3-fluorophenyl)-3-(5-(methoxymethyl)-4-(6-methoxypyridin-3-yl)-4H-1,2,4-triazol-3-yl)-3-azabicyclo[3.1.0]hexane] were 29 nM, 3800 nM and 25700 nM.
As for `CCOCc1nnc(N2C[C@@H]3C[C@]3(c3ccc(F)cc3Cl)C2)n1-c1ccc(OC)nc1` [Example 6, (1S,5R)-1-(2-Chloro-4-fluorophenyl)-3-(5-(ethoxymethyl)-4-(6-methoxypyridin-3-yl)-4H-1,2,4-triazol-3-yl)-3-azabicyclo[3.1.0]hexane], the IC50 came out at 4.3 nM in test [1], 1700 nM in test [2] and 7300 nM in test [3].
In the same order, the values of `COCc1nnc(N2C[C@@H]3C[C@]3(c3ccc(F)cc3Cl)C2)n1-c1ccc(OC)nc1` [Example 9, (1S,5R)-1-(2-Chloro-4-fluorophenyl)-3-(5-(methoxymethyl)-4-(6-methoxypyridin-3-yl)-4H-1,2,4-triazol-3-yl)-3-azabicyclo[3.1.0]hexane] are 14 nM, 2900 nM and 32600 nM.
Turning to `COc1ccc(-n2c(N3C[C@@H]4C[C@]4(c4ccc(F)cc4Cl)C3)nnc2C(F)(F)F)cn1` [Example 12, (1S,5R)-1-(2-Chloro-4-fluorophenyl)-3-(4-(6-methoxypyridin-3-yl)-5-(trifluoromethyl)-4H-1,2,4-triazol-3-yl)-3-azabicyclo[3.1.0]hexane], the half-maximal inhibitory concentration (IC50) in test [1] was 30 nM; in test [2] it was 3600 nM; in test [3], 29500 nM.

The IC50 is the point on the concentration scale where inhibition reaches its midpoint.
